# ChEMBL document CHEMBL4145553, “Design, synthesis, and biological evaluation of novel amide and hydrazide based thioether analogs targeting Histone deacteylase (HDAC) enzymes” (Eur J Med Chem, 2018)
# The source made the active and inactive calls. The rule behind the calls is not given here.
# What was measured:
# HL-60 [1] = assay: Induction of apoptosis in human HL60 cells assessed as increase in caspase-9 expression by qRT-PCR method; assay type: functional, cell-based
# MDA-MB-231 [2] = assay: Growth inhibition of human MDA-MB-231 cells assessed as cell growth at 10^-5 M incubated for 48 hrs by sulforhodamine B assay relative to control; assay type: functional; conditions: MDA-MB-231, 48 h, read-out: Activity
# MOLT-4 = assay: Growth inhibition of human MOLT4 cells assessed as cell growth at 10^-7 M incubated for 48 hrs by sulforhodamine B assay relative to control; assay type: functional; conditions: MOLT-4, 48 h, read-out: Activity
# HT-29 = assay: Growth inhibition of human HT-29 cells assessed as cell growth at 10^-8 M incubated for 48 hrs by sulforhodamine B assay relative to control; assay type: functional; conditions: HT-29, 48 h, read-out: Activity
# SF-295 [3] = assay: Growth inhibition of human SF295 cells assessed as cell growth at 10^-5 M incubated for 48 hrs by sulforhodamine B assay relative to control; assay type: functional; conditions: SF-295, 48 h, read-out: Activity
# U-251 [4] = assay: Growth inhibition of human U251 cells assessed as cell growth at 10^-7 M incubated for 48 hrs by sulforhodamine B assay relative to control; assay type: functional; conditions: U-251, 48 h, read-out: Activity
# MDA-MB-435 = assay: Induction of apoptosis in human MDA-MB-435 cells assessed as late apoptotic cells by propidium iodide/Annexin V staining based flow cytometry (reference value: 0.22%); assay type: functional
# COLO 205 [5] = assay: Growth inhibition of human COLO205 cells assessed as cell growth at 10^-4 M incubated for 48 hrs by sulforhodamine B assay relative to control; assay type: functional; conditions: COLO 205, 48 h, read-out: Activity
# SF-295 [6] = assay: Growth inhibition of human SF295 cells assessed as cell growth at 10^-4 M incubated for 48 hrs by sulforhodamine B assay relative to control; assay type: functional; conditions: SF-295, 48 h, read-out: Activity
# SF-295 [7] = assay: Growth inhibition of human SF295 cells incubated for 48 hrs by sulforhodamine B assay; assay type: functional; conditions: SF-295, 48 h
# SF-268 = assay: Growth inhibition of human SF268 cells incubated for 48 hrs by sulforhodamine B assay; assay type: functional; conditions: SF-268, 48 h
# UACC-62 [8] = assay: Growth inhibition of human UACC62 cells assessed as cell growth at 10^-8 M incubated for 48 hrs by sulforhodamine B assay relative to control; assay type: functional; conditions: UACC-62, 48 h, read-out: Activity
# SK-OV-3 [9] = assay: Growth inhibition of human SKOV3 cells assessed as cell growth at 10^-8 M incubated for 48 hrs by sulforhodamine B assay relative to control; assay type: functional; conditions: SK-OV-3, 48 h, read-out: Activity
# K562 = assay: Growth inhibition of human K562 cells assessed as cell growth at 10^-8 M incubated for 48 hrs by sulforhodamine B assay relative to control; assay type: functional; conditions: K562, 48 h, read-out: Activity
# NCI-H226 [10] = assay: Growth inhibition of human NCI-H226 cells assessed as cell growth at 10^-6 M incubated for 48 hrs by sulforhodamine B assay relative to control; assay type: functional; conditions: NCI-H226, 48 h, read-out: Activity
# SW-620 = assay: Growth inhibition of human SW620 cells assessed as cell growth at 10^-5 M incubated for 48 hrs by sulforhodamine B assay relative to control; assay type: functional; conditions: SW-620, 48 h, read-out: Activity
# HL-60 [11] = assay: Antiproliferative activity against human HL60 cells after 24 hrs by MTT assay; assay type: functional; conditions: for GI50: Homo sapiens, HL-60, 24 h
# UACC-62 [12] = assay: Growth inhibition of human UACC62 cells assessed as cell growth at 10^-5 M incubated for 48 hrs by sulforhodamine B assay relative to control; assay type: functional; conditions: UACC-62, 48 h, read-out: Activity
# OVCAR-3 = assay: Growth inhibition of human OVCAR3 cells assessed as cell growth at 10^-8 M incubated for 48 hrs by sulforhodamine B assay relative to control; assay type: functional; conditions: OVCAR-3, 48 h, read-out: Activity
# T47D = assay: Growth inhibition of human T47D cells assessed as cell growth at 10^-6 M incubated for 48 hrs by sulforhodamine B assay relative to control; assay type: functional; conditions: read-out: Activity
# COLO 205 [13] = assay: Growth inhibition of human COLO205 cells incubated for 48 hrs by sulforhodamine B assay; assay type: functional; conditions: COLO 205, 48 h
# Histone deacetylase 1 = Histone deacetylase 1 (Homo sapiens, UniProt Q13547); assay: Inhibition of human HDAC1 by ELISA
# HCC 2998 = assay: Growth inhibition of human HCC2998 cells assessed as cell growth at 10^-5 M incubated for 48 hrs by sulforhodamine B assay relative to control; assay type: functional; conditions: HCC 2998, 48 h, read-out: Activity
# SN12C = assay: Growth inhibition of human SN12C cells assessed as cell growth at 10^-4 M incubated for 48 hrs by sulforhodamine B assay relative to control; assay type: functional; conditions: read-out: Activity
# SF-295 [14] = assay: Growth inhibition of human SF295 cells assessed as cell growth at 10^-8 M incubated for 48 hrs by sulforhodamine B assay relative to control; assay type: functional; conditions: SF-295, 48 h, read-out: Activity
# MDA-MB-231 [15] = assay: Growth inhibition of human MDA-MB-231 cells incubated for 48 hrs by sulforhodamine B assay; assay type: functional; conditions: MDA-MB-231, 48 h
# CCRF-CEM = assay: Growth inhibition of human CCRF-CEM cells incubated for 48 hrs by sulforhodamine B assay; assay type: functional
# BT-549 = assay: Growth inhibition of human BT549 cells assessed as cell growth at 10^-4 M incubated for 48 hrs by sulforhodamine B assay relative to control; assay type: functional; conditions: BT-549, 48 h, read-out: Activity
# SF-539 = assay: Growth inhibition of human SF539 cells assessed as cell growth at 10^-8 M incubated for 48 hrs by sulforhodamine B assay relative to control; assay type: functional; conditions: SF-539, 48 h, read-out: Activity
# U-251 [16] = assay: Growth inhibition of human U251 cells assessed as cell growth at 10^-8 M incubated for 48 hrs by sulforhodamine B assay relative to control; assay type: functional; conditions: U-251, 48 h, read-out: Activity
# SK-OV-3 [17] = assay: Growth inhibition of human SKOV3 cells assessed as cell growth at 10^-5 M incubated for 48 hrs by sulforhodamine B assay relative to control; assay type: functional; conditions: SK-OV-3, 48 h, read-out: Activity
# NCI-H226 [18] = assay: Growth inhibition of human NCI-H226 cells assessed as cell growth at 10^-4 M incubated for 48 hrs by sulforhodamine B assay relative to control; assay type: functional; conditions: NCI-H226, 48 h, read-out: Activity
# [19] = read-out: LC50 (the source's name)
# [20] = read-out: pLC50 (the source's name) (converted)
# Chain of Histone deacetylase 1 (Q13547 whole entry): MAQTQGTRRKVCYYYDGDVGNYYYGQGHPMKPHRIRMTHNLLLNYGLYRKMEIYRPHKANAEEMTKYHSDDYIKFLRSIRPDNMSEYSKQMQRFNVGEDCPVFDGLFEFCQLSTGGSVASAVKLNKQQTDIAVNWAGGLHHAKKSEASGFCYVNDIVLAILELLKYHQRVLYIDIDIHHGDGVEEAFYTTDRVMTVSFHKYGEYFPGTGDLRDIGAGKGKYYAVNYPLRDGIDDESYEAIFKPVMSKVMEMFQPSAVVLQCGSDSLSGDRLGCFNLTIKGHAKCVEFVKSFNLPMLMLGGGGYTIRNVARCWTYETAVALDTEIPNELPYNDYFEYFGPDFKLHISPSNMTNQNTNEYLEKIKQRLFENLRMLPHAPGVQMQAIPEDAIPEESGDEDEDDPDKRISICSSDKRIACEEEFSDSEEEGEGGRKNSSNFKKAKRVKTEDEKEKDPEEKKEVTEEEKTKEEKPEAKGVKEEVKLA
compound,measurement,setting,value
CCS/C(Nc1ccccc1)=C(\C#N)C(=O)Nc1ccc(OC)cc1,Activity,HL-60 [1],Active
same,growth at 10 µM,MDA-MB-231 [2],23%
same,growth at 0.1 µM,MOLT-4,90%
same,growth at 0.01 µM,HT-29,109%
same,growth at 10 µM,SF-295 [3],16%
same,growth at 0.1 µM,U-251 [4],98%
same,Activity,MDA-MB-435,6.38%
same,growth at 100 µM,COLO 205 [5],-17%
same,growth at 100 µM,SF-295 [6],6%
same,GI50,SF-295 [7]; read-out: GI50,3.06 µM
same,CC50,SF-295 [7]; [19],> 100 µM
same,TGI,SF-295 [7]; read-out: TGI,> 100 µM
same,GI50,SF-295 [7]; read-out: pGI50 (converted),3.09 µM
same,CC50,SF-295 [7]; [20],> 100 µM
same,TGI,SF-295 [7]; read-out: pTGI,> 100 µM
same,GI50,SF-268; read-out: GI50,6.8 µM
same,CC50,SF-268; [19],> 100 µM
same,TGI,SF-268; read-out: TGI,> 100 µM
same,GI50,SF-268; read-out: pGI50 (converted),6.76 µM
same,CC50,SF-268; [20],> 100 µM
same,TGI,SF-268; read-out: pTGI,> 100 µM
same,growth at 0.01 µM,UACC-62 [8],93%
same,growth at 0.01 µM,SK-OV-3 [9],103%
same,growth at 0.01 µM,K562,106%
same,growth at 1 µM,NCI-H226 [10],88%
same,growth at 10 µM,SW-620,21%
same,Activity,HL-60 [11],Dose-dependent effect
same,GI50,HL-60 [11],2.87 µM
same,growth at 10 µM,UACC-62 [12],21%
same,growth at 0.01 µM,OVCAR-3,97%
same,growth at 1 µM,T47D,88%
same,GI50,COLO 205 [13]; read-out: GI50,3.06 µM
same,CC50,COLO 205 [13]; [19],> 100 µM
same,TGI,COLO 205 [13]; read-out: TGI,11.2 µM
same,GI50,COLO 205 [13]; read-out: pGI50 (converted),3.09 µM
same,CC50,COLO 205 [13]; [20],> 100 µM
same,TGI,COLO 205 [13]; read-out: pTGI (converted),11.2 µM
same,IC50,Histone deacetylase 1,0.038 µM
same,growth at 10 µM,HCC 2998,41%
same,growth at 100 µM,SN12C,16%
same,growth at 0.01 µM,SF-295 [14],94%
same,GI50,MDA-MB-231 [15]; read-out: GI50,4.14 µM
same,CC50,MDA-MB-231 [15]; [19],> 100 µM
same,TGI,MDA-MB-231 [15]; read-out: TGI,36.5 µM
same,GI50,MDA-MB-231 [15]; read-out: pGI50 (converted),4.17 µM
same,CC50,MDA-MB-231 [15]; [20],> 100 µM
same,TGI,MDA-MB-231 [15]; read-out: pTGI (converted),36.3 µM
same,GI50,CCRF-CEM; read-out: GI50,1.83 µM
same,CC50,CCRF-CEM; [19],> 100 µM
same,TGI,CCRF-CEM; read-out: TGI,> 100 µM
same,GI50,CCRF-CEM; read-out: pGI50 (converted),1.82 µM
same,CC50,CCRF-CEM; [20],> 100 µM
same,TGI,CCRF-CEM; read-out: pTGI,> 100 µM
same,growth at 100 µM,BT-549,12%
same,growth at 0.01 µM,SF-539,94%
same,growth at 0.01 µM,U-251 [16],97%
same,growth at 10 µM,SK-OV-3 [17],10%
same,growth at 100 µM,NCI-H226 [18],-15%
CCS/C(Nc1ccccc1)=C(\C#N)C(=O)N/N=C\c1ccc(Cl)cc1Cl,Activity,HL-60 [1],Active
same,growth at 10 µM,MDA-MB-231 [2],32%
same,growth at 0.1 µM,MOLT-4,82%
same,growth at 0.01 µM,HT-29,105%
same,growth at 10 µM,SF-295 [3],15%
same,growth at 0.1 µM,U-251 [4],98%
same,Activity,MDA-MB-435,3.47%
same,growth at 100 µM,COLO 205 [5],3%
same,growth at 100 µM,SF-295 [6],3%
same,GI50,SF-295 [7]; read-out: GI50,2.89 µM
same,CC50,SF-295 [7]; [19],> 100 µM
same,TGI,SF-295 [7]; read-out: TGI,> 100 µM
same,GI50,SF-295 [7]; read-out: pGI50 (converted),2.88 µM
same,CC50,SF-295 [7]; [20],> 100 µM
same,TGI,SF-295 [7]; read-out: pTGI,> 100 µM
same,GI50,SF-268; read-out: GI50,6.58 µM
same,CC50,SF-268; [19],> 100 µM
same,TGI,SF-268; read-out: TGI,> 100 µM
same,GI50,SF-268; read-out: pGI50 (converted),6.61 µM
same,CC50,SF-268; [20],> 100 µM
same,TGI,SF-268; read-out: pTGI,> 100 µM
same,growth at 0.01 µM,UACC-62 [8],92%
same,growth at 0.01 µM,SK-OV-3 [9],99%
same,growth at 0.01 µM,K562,106%
same,growth at 1 µM,NCI-H226 [10],85%
same,growth at 10 µM,SW-620,31%
same,Activity,HL-60 [11],Dose-dependent effect
same,GI50,HL-60 [11],3.2 µM
same,growth at 10 µM,UACC-62 [12],26%
same,growth at 0.01 µM,OVCAR-3,102%
same,growth at 1 µM,T47D,89%
same,GI50,COLO 205 [13]; read-out: GI50,3.09 µM
same,CC50,COLO 205 [13]; [19],> 100 µM
same,GI50,COLO 205 [13]; read-out: pGI50 (converted),3.09 µM
same,CC50,COLO 205 [13]; [20],> 100 µM
same,IC50,Histone deacetylase 1,0.07 µM
same,growth at 10 µM,HCC 2998,33%
same,growth at 100 µM,SN12C,28%
same,growth at 0.01 µM,SF-295 [14],95%
same,GI50,MDA-MB-231 [15]; read-out: GI50,4.75 µM
same,CC50,MDA-MB-231 [15]; [19],> 100 µM
same,TGI,MDA-MB-231 [15]; read-out: TGI,> 100 µM
same,GI50,MDA-MB-231 [15]; read-out: pGI50 (converted),4.79 µM
same,CC50,MDA-MB-231 [15]; [20],> 100 µM
same,TGI,MDA-MB-231 [15]; read-out: pTGI (converted),> 100 µM
same,GI50,CCRF-CEM; read-out: GI50,3.07 µM
same,CC50,CCRF-CEM; [19],> 100 µM
same,TGI,CCRF-CEM; read-out: TGI,> 100 µM
same,GI50,CCRF-CEM; read-out: pGI50 (converted),3.09 µM
same,CC50,CCRF-CEM; [20],> 100 µM
same,TGI,CCRF-CEM; read-out: pTGI,> 100 µM
same,growth at 100 µM,BT-549,7%
same,growth at 0.01 µM,SF-539,105%
same,growth at 0.01 µM,U-251 [16],101%
same,growth at 10 µM,SK-OV-3 [17],19%
same,growth at 100 µM,NCI-H226 [18],11%
